Data published in patent US8569511B2, “Substituted 3-(1H-benzo[d]imidazol-2-yl)-1H-indazole analogs as inhibitors of the PDK1 kinase” (University of Utah Research Foundation, priority 2011, dated 2013).
pIC50: −log10 of the molar value.

How the values were obtained:
[1] = tested on: AKT phosphorylation (Thr308) in AN3-CA cells; assay: AKT (T308) Phosphorylation Assay (Meso Scale Discovery); format: cell-based; settings: Homo sapiens, 24 hours, FIG. 7A, read-out: IC50 knock down of phospho-AKT (Thr308) levels
Description: AN3-CA cells were plated in 900 μl of RPMI-1640 media supplemented with 10% FBS and 1% Pen/Strep at a density of 8×10^5 cells per well in 6-well plates. Cells were allowed to attach by incubation overnight at 37° C. and 5% CO2. Test compounds were diluted to 10× concentrations in RPMI-1640 media (containing 3% DMSO) and 100 μl of these dilutions were added to the appropriate wells containing the cells. The plates containing the drug-treated cells and appropriate controls were incubated for 24 hours. At the end of incubation, phosphorylated AKT was evaluated in treated and control samples using a Meso Scale Discovery (Gaithersburg, Md.) assay kit (human Phospho-Akt (Thr308) kit) and by following the manufacturer's instructions included with the kit. Total AKT (phosphorylated and unphosphorylated) was also evaluated in the samples using a separate kit (Meso Scale Discovery). The percentage of AKT phosphorylated at the Thr308 position (also indicated as T308 herein) was determined by normalizing the phospho-AKT signal to the total AKT signal and then showing the percent phosphorylation in the treated samples relative to the controls.
Briefly, AN3-CA cells were treated with the compound for 24 hours and lysates from these treatments were analyzed for phospho-AKT (Thr308) using the Meso Scale Discovery technology platform as described above.

VEGFR2 = VEGFR2 (Homo sapiens (Human), UniProt P35968); assay: Kinase profiling, fluorometric assays by Life Technologies; format: biochemical; settings: profiling at 500 nM, FIG. 8
VEGFR2, sequence (P35968 20-1356): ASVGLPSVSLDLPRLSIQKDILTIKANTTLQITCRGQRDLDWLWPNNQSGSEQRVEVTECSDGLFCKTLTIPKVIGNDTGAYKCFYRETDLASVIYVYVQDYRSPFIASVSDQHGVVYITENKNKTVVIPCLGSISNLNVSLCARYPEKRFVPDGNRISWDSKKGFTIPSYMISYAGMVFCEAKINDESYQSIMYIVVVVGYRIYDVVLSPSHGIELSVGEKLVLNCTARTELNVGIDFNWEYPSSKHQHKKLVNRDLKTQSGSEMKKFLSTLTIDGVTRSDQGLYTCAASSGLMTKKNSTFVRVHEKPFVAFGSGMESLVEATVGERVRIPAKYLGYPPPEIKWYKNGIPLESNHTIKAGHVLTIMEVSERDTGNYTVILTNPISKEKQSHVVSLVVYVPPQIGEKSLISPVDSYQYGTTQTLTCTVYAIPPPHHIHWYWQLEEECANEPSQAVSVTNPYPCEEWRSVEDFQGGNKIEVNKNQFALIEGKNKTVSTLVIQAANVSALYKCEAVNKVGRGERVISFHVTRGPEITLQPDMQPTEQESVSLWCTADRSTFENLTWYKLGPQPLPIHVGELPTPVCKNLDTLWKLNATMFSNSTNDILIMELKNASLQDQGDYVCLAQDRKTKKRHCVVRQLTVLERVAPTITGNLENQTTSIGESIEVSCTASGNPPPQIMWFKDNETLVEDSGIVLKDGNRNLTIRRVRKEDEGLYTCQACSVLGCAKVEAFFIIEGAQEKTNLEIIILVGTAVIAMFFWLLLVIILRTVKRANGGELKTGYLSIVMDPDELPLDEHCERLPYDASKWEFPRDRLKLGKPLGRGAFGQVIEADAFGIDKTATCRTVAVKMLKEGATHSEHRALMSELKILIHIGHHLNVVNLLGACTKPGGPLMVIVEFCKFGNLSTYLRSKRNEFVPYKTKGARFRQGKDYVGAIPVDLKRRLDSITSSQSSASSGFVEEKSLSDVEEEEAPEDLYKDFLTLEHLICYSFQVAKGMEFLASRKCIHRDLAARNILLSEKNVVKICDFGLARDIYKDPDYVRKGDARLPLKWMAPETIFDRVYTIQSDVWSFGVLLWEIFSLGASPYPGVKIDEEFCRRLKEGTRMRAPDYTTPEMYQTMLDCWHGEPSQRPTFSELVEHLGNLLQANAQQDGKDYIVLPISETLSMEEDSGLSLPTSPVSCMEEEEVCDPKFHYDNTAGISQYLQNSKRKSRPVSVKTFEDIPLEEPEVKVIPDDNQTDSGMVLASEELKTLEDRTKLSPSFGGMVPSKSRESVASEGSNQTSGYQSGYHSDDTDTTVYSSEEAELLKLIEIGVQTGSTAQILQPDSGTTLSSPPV
Description: (§1) The panel comprised 78 distinct protein kinases, and data are shown for a subset of 20 kineases (see FIG. 8). Kinase profiling was performed against a focus panel of kinases relevant to PDK1 signaling and other known oncogenic kinases. The activity profiling as performed at 500 nM and percent inhibition at that concentration was determined for each kinase shown.
(§2) The kinase specificity was measured using fluorometric assays performed by Life Technologies (Grand Island, N.Y.). Assay conditions vary for each kinase and are available from Life Technologies, Grand Island, NY. For example, the assay conditions for PDK1 are as follows. The 2×PDK1/Ser/Thr-07 mixture is prepared in 50 mM Tris pH 8.5, 0.01% BRIJ-35, 10 mM MgCl2, 1 mM EGTA, 0.02% NaN3. The final 10 μL Kinase Reaction consists of 7.36-38.7 ng PDK1 and 2 μM Ser/Thr 07. After the 1 hour kinase reaction incubation, 5 μL of a 1:32768 dilution of Development Reagent A is added.

p70S6K = p70S6K (Homo sapiens (Human), UniProt P23443); assay: as above; format: biochemical; settings: profiling at 500 nM, FIG. 8
p70S6K, sequence (P23443 whole entry): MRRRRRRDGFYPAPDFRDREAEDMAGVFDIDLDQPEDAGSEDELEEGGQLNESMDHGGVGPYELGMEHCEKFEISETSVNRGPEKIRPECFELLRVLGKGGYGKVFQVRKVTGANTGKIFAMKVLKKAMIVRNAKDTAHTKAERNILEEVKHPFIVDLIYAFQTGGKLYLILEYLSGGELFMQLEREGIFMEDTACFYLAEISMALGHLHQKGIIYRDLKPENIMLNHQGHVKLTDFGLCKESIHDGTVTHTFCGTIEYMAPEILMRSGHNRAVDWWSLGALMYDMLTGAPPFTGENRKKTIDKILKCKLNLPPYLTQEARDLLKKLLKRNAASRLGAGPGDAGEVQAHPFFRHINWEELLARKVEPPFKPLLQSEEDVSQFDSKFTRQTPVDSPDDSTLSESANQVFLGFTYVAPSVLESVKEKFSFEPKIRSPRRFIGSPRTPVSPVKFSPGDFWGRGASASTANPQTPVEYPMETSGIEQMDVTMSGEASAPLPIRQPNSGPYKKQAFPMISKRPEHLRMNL
Description: as §1, §2

VEGFR1 = VEGFR1 (Homo sapiens (Human), UniProt P17948); assay: as above; format: biochemical; settings: profiling at 500 nM, FIG. 8
VEGFR1, sequence (P17948 27-1338): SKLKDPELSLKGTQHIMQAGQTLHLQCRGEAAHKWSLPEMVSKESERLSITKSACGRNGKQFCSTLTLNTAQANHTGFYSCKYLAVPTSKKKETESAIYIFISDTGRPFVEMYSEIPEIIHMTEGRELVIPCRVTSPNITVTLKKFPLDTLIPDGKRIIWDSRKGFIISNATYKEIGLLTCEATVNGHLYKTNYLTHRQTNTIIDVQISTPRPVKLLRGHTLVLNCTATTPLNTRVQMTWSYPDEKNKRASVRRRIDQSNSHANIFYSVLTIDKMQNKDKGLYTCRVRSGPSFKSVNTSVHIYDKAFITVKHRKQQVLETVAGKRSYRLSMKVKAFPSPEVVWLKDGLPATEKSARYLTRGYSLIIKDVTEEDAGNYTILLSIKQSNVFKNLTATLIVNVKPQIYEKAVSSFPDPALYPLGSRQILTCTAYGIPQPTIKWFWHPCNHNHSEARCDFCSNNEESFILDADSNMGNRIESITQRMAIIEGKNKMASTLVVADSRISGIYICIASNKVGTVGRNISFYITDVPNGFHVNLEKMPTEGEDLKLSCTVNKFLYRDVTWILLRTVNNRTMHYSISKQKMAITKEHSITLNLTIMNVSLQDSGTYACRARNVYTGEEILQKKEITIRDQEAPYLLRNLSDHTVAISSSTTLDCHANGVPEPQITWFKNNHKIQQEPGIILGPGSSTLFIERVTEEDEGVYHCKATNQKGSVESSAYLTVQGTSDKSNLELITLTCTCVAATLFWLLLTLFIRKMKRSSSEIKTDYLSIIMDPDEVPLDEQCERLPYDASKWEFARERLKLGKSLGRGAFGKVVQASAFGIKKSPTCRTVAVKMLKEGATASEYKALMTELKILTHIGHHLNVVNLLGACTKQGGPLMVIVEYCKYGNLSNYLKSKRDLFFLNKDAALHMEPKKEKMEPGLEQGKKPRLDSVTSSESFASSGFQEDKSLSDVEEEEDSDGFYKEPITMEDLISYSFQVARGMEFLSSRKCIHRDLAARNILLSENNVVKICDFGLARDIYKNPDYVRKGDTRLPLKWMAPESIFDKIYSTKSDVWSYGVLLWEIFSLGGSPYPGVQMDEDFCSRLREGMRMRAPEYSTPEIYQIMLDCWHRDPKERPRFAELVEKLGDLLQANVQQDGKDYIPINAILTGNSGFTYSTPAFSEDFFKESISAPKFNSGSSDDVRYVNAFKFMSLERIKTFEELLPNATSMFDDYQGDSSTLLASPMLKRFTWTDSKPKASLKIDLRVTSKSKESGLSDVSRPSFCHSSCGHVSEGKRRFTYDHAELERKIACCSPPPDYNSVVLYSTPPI
Description: as §1, §2

PDGFRA = PDGFRA (Homo sapiens (Human), UniProt P16234); assay: as above; format: biochemical; settings: profiling at 500 nM, FIG. 8
PDGFRA, sequence (P16234 24-1089): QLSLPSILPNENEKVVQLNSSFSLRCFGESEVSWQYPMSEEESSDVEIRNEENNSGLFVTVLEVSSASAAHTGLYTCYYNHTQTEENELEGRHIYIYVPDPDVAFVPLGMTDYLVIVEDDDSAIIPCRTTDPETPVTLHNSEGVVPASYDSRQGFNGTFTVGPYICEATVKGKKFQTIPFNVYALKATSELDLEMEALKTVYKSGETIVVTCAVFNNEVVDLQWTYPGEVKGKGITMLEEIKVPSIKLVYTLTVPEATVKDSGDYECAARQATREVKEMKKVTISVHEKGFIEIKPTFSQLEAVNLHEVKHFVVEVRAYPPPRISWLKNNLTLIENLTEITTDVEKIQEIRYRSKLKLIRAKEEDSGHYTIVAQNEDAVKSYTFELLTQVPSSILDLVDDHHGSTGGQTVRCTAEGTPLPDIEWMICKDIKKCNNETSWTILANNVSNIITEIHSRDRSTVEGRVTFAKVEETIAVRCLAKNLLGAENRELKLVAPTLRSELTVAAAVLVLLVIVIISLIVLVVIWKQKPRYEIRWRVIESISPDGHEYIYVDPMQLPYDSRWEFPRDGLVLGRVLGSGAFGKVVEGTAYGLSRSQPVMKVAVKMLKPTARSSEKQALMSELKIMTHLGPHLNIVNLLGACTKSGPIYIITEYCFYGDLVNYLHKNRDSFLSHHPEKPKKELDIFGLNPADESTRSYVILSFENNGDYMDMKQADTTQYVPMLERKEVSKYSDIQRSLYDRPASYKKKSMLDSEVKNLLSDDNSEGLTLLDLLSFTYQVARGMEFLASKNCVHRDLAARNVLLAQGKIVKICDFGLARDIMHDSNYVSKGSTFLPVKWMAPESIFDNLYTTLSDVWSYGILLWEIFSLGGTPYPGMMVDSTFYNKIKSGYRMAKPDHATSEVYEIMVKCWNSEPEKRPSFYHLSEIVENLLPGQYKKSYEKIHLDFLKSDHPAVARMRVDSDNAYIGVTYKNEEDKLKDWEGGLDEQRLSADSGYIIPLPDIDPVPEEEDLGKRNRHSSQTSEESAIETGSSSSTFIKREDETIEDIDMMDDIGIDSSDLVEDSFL
Description: as §1, §2

HT-29 = assay: Cell viability assay, cancer cell line panel; format: cell-based; settings: Homo sapiens, mutation PIK3CA, BRAF
HCT-116 = assay: Cell viability assay, cancer cell line panel; format: cell-based; settings: Homo sapiens, mutation KRAS, PIK3CA
LNCap = assay: Cell viability assay, cancer cell line panel; format: cell-based; settings: Homo sapiens, mutation PTEN
[2] = tested on: phosphorylation of the ribosomal S6 protein; assay: Western blot of phospho-S6 in excised xenograft tumors; format: in vivo, athymic nude mice; settings: western blot of tumors after the study, 50 mg/kg IP
Description: Cells were washed with PBS and whole cell lysates were prepared by incubating cells in […] (Invitrogen Corporation, Carlsbad, Calif.) supplemented with Protease Inhibitor Cocktail (Roche Applied Science, a division of Roche Diagnostics Corporation, Indianapolis, Ind.) and Phosphatase Inhibitor Cocktail (Roche) on ice for 30 minutes. After centrifuging the lysates at 12,000 rpm for 10 minutes at 4° C., the supernatant was collected. Protein concentration was determined using BCA Assay. The same amounts of protein were run on NuPAGE 4-12% Bis-Tris Gel, and then transferred onto a PVDF membrane. […]
The in vivo effects of compounds were determined in a mouse subcutaneous xenograft tumor model wherein AN3-CA cells were implanted subcutaneously into the hind flank of athymic nude mice. […] Tumor volume was determined using the formula L×W2×0.5, where L is the longest length, and W is the shortest length. Tumor volume and body weight was measured twice a week.
Following the study, the tumors from the vehicle and test compound groups were removed from the animals and analyzed for phosho-S6 levels by western blot (FIG. 10C). […]

pIC50 [1]	Kinase profiling activity against VEGFR2 (in words) (VEGFR2)	Kinase profiling activity against p70S6K (in words) (p70S6K)	Kinase profiling activity against VEGFR1 (in words) (VEGFR1)	Kinase profiling activity against PDGFRA (in words) (PDGFRA)	pIC50 (HT-29)	pIC50 (HCT-116)	pIC50 (LNCap)	SMILES	Phospho-S6 levels in tumors compared to the vehicle group [2]
7.29	relatively potent activity	potent activity	relatively potent activity	relatively potent activity	4.97	5.60	4.61	O=C(Nc1ccc2[nH]nc(-c3nc4ccc(N5CCOCC5)cc4[nH]3)c2c1)C1CC1(F)F (stereo not drawn) [Compound 1, 2,2-difluoro-N-(3-(5-morpholino-1H-benzo[d]imidazol-2-yl)-1H-indazol-5-yl)cyclopropanecarboxamide]	–
–	–	–	–	–	–	–	–	CC1CN(c2ccc3nc(-c4n[nH]c5ccc(NC(=O)C6CC6(F)F)cc45)[nH]c3c2)CCO1 (stereo not drawn) [Compound 2, 2,2-difluoro-N-(3-(5-(2-methylmorpholino)-1H-benzo[d]imidazol-2-yl)-1H-indazol-5-yl)cyclopropanecarboxamide]	down-regulation of phospho-S6 levels
